{"source": "ChEMBL document CHEMBL5465560", "about": "“Selectivity Literature for EUbOPEN Chemogenomic Library” (2024)", "key": {"[1]": {"molecular_target": "CDK4/Cyclin D3 (Homo sapiens) (UniProt P11802+P30281)", "conditions": "at 10 µM"}, "[2]": {"molecular_target": "Mitogen-activated protein kinase 14 (Homo sapiens, UniProt Q16539)", "sequence (Q16539 whole entry)": "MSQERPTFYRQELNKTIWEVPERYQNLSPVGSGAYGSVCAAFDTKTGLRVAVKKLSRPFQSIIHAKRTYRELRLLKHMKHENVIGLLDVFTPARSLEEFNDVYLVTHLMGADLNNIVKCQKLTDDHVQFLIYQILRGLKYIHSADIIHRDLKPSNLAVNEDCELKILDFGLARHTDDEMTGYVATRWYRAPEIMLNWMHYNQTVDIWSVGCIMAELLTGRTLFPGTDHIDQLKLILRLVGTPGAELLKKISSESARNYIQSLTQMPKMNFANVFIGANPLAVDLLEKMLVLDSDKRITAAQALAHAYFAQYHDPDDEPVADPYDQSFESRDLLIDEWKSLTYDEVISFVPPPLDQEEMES", "assay": "Selectivity interaction (ActivX KiNativ screen (kinase selectivity in THP-1 cell lysates)) EUB0000639a MAPK14", "type": "subcellular", "conditions": "lysate"}, "[3]": {"molecular_target": "T1, Mitogen-activated protein kinase 15 (Homo sapiens) (UniProt Q8TD08)", "T1 sequence (whole entry)": "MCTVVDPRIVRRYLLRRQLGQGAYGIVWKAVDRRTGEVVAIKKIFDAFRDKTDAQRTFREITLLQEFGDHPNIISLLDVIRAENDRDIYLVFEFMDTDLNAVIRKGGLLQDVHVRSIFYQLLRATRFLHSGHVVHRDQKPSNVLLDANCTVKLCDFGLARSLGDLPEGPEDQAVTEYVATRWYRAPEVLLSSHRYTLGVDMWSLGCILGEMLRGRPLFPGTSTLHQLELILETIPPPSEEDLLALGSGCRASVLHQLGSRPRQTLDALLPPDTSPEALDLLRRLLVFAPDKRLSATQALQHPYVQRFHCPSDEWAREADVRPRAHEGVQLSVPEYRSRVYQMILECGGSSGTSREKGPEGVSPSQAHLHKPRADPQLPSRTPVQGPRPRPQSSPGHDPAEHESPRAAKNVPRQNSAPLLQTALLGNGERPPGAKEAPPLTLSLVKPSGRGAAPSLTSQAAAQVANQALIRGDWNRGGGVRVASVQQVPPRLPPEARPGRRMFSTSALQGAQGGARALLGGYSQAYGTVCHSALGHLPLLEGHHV", "assay": "Selectivity interaction (Kinase panel (literature)) EUB0001199aCl MAPK15", "conditions": "at 1 µM"}, "[4]": {"molecular_target": "T2, Inhibitor of nuclear factor kappa-B kinase subunit beta (Homo sapiens) (UniProt O14920)", "T2 sequence (whole entry)": "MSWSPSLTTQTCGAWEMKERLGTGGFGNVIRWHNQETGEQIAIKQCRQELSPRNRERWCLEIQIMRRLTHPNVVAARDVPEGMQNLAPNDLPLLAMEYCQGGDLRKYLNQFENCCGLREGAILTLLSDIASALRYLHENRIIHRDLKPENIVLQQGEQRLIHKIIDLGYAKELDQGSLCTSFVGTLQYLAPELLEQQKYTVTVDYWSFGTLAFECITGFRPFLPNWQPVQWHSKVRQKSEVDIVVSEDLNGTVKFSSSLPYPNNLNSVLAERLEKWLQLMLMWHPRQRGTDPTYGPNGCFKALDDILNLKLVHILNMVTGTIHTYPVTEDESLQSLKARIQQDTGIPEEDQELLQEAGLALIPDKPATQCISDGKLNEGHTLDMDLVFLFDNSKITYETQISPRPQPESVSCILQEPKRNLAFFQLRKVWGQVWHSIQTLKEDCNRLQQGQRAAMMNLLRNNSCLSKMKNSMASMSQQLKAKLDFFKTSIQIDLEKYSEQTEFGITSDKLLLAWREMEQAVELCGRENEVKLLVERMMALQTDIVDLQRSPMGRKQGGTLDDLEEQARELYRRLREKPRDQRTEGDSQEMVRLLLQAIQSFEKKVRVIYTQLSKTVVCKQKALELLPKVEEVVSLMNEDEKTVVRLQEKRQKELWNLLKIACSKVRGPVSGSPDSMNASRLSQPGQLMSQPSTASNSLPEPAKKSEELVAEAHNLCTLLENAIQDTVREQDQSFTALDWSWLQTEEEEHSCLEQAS", "assay": "Selectivity interaction (ProQinase) EUB0000171b IKBKB"}, "[5]": {"molecular_target": "BDNF/NT-3 growth factors receptor (Homo sapiens) (UniProt Q16620)", "sequence (Q16620 32-822 limits assumed)": "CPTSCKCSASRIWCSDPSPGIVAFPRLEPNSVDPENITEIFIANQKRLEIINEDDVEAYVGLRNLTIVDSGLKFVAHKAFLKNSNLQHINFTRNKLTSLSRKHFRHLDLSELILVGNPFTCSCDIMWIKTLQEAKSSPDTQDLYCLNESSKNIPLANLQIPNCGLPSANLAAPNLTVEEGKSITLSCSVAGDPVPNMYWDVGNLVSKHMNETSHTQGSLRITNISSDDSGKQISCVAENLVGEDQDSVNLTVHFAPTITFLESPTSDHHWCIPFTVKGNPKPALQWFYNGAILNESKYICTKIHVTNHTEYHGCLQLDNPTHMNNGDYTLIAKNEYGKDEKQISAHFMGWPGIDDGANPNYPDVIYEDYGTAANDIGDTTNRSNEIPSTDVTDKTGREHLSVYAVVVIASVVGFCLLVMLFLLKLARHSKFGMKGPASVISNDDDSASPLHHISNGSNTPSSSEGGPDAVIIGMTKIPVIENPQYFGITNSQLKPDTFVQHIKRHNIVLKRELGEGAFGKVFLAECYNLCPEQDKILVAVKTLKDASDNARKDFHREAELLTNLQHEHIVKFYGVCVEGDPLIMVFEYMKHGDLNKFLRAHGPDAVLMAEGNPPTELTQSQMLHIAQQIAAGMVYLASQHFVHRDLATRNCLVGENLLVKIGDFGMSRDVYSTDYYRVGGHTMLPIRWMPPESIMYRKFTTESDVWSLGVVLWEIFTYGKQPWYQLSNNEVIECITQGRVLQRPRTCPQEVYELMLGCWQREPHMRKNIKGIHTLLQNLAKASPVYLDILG", "assay": "Selectivity interaction (ProQinase) EUB0000171b NTRK2"}, "[6]": {"molecular_target": "Mitogen-activated protein kinase 11 (Homo sapiens) (UniProt Q15759)", "sequence (Q15759 whole entry)": "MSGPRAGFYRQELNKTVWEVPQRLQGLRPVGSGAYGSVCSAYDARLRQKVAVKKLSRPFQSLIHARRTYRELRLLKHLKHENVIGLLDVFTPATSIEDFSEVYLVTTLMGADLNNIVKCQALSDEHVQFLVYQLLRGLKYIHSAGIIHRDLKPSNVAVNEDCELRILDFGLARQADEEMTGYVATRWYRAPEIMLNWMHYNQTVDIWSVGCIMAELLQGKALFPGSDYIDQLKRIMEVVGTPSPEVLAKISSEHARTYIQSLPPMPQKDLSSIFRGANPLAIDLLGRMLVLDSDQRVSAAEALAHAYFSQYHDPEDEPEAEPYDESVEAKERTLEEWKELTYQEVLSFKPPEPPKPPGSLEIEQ", "assay": "Selectivity interaction (KinomeScan (DiscoverX)) EUB0000045b MAPK11"}, "[7]": {"molecular_target": "T3, Tyrosine-protein kinase ZAP-70 (Homo sapiens) (UniProt P43403)", "T3 sequence (whole entry)": "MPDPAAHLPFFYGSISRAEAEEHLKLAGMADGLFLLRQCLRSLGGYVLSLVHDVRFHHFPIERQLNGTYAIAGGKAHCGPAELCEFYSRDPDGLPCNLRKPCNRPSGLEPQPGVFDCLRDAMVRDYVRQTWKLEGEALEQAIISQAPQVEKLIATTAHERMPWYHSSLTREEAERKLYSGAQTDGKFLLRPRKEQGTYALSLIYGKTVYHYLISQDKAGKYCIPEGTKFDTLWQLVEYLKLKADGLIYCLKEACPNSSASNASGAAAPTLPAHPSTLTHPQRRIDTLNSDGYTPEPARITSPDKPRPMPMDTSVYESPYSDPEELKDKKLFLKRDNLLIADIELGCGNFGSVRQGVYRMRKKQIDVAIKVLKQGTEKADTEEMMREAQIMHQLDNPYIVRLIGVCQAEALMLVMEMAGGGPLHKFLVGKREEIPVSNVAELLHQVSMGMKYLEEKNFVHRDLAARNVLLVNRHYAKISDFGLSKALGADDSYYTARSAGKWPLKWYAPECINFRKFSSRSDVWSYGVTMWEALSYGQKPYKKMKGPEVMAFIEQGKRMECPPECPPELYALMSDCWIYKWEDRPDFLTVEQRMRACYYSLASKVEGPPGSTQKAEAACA", "assay": "Selectivity interaction (ActivX KiNativ screen (ex vivo kinase selectivity in human PBMCs)) EUB0001619a ZAP70", "type": "cell-based", "conditions": "PBMC, at 1 µM"}, "[8]": {"molecular_target": "D(2) dopamine receptor (Homo sapiens, UniProt P14416)", "sequence (P14416 whole entry)": "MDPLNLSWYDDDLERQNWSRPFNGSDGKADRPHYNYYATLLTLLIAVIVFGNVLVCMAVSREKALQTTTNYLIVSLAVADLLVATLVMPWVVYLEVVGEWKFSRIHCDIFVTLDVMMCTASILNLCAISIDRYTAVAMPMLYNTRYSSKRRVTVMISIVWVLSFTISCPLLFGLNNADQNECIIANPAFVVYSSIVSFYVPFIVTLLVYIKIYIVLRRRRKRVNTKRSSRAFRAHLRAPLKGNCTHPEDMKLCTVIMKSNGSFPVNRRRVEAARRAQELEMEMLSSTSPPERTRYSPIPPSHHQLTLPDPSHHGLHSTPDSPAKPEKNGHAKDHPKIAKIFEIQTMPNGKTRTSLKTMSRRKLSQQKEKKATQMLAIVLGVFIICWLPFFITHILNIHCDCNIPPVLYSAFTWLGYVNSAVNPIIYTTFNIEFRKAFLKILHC", "assay": "Selectivity interaction (Panel of kinases, GPCRs, ion channels and transporters (enzymatic assay)) EUB0000223bCl DRD2"}}}
{"smiles": "Cc1cc([C@@H](C)Nc2ccccc2C(=O)O)c2nc(N3CCOCC3)cc(=O)n2c1", "note": "[AZD-6482]", "values": [{"measurement": "% of control", "setting": "[1]", "value": 100, "unit": "%"}]}
{"smiles": "CC[C@@H]1[C@H](F)C(=O)N[C@@H]1COc1nccc2cc(C(N)=O)c(OC)cc12", "note": "[ZIMLOVISERTIB]", "values": [{"measurement": "% of inhibition", "setting": "[2]; at 0.01 µM", "value": 0.8, "unit": "%"}, {"measurement": "% of inhibition", "setting": "[2]; at 0.04 µM", "value": 1.1, "unit": "%"}, {"measurement": "% of inhibition", "setting": "[2]; at 0.2 µM", "value": 10.2, "unit": "%"}, {"measurement": "% of inhibition", "setting": "[2]; at 1 µM", "value": 10.6, "unit": "%"}, {"measurement": "% of inhibition", "setting": "[2]; at 5 µM", "value": 4.8, "unit": "%"}]}
{"smiles": "CN1Cc2nccc(-c3cn(C)nc3-c3ccc(F)cc3)c2C1=O", "values": [{"measurement": "% of inhibition", "setting": "[3]", "value": 10, "unit": "%"}]}
{"smiles": "C=CC(=O)Nc1cccc(C(=O)Nc2ccc(Nc3cc(-c4[nH]c(SC)nc4C)ccn3)cc2)c1", "values": [{"measurement": "% of control", "setting": "[4]; at 1 µM", "value": 77, "unit": "%"}, {"measurement": "% of control", "setting": "[4]; at 5 µM", "value": 63, "unit": "%"}, {"measurement": "% of control", "setting": "[5]; at 1 µM", "value": 89, "unit": "%"}, {"measurement": "% of control", "setting": "[5]; at 5 µM", "value": 81, "unit": "%"}]}
{"smiles": "C=CC(=O)Nc1cc(-n2c(=O)ccc3cnc4ccc(-c5ccc(NS(C)(=O)=O)cc5)cc4c32)ccc1C", "values": [{"measurement": "% of control", "setting": "[6]; at 1 µM", "value": 90, "unit": "%"}, {"measurement": "% of control", "setting": "[6]; at 10 µM", "value": 95, "unit": "%"}]}
{"smiles": "N#Cc1cccc(-c2c[nH]c3ncnc(N4CCOCC4)c23)c1", "values": [{"measurement": "% of inhibition", "setting": "[7]", "value": -33, "unit": "%"}]}
{"smiles": "COc1cc(C(=O)N2CC[C@@H](O)[C@@H](N)C2)cc2nc(-c3cc4ccccc4n3CC3CC3)n(C)c12", "values": [{"measurement": "pXC50", "setting": "[8]", "value": "< 4", "unit": "M"}]}
